Data set [1] is described as follows: Pharmacokinetic testing in rats. In kind it is in vivo, SD rats. As for the experimental part: Rats were used as test animals to study the pharmacokinetic behavior of the following compounds in rat plasma.
The drugs were self-made according to the examples of the present invention.
SD rats, 6-8 weeks old, 3 for each administration method/example, male.
The animals were fasted overnight, ate food 8 hours after taking the drug, and drank water freely.
Blood was collected before administration and at 5 min, 15 min, 30 min, 1 hr, 2 hr, 4 hr, 8 hr and 24 hr after administration.
The blood was placed on wet ice and centrifuged to obtain plasma sample (2000 g, 5 min at 4° C.).
The LC-MS/MS method was used to determine the blood drug concentration. The HPLC conditions were: mobile phase A: H2O-0.5% FA; mobile phase B: ACN-0.5% FA;
WinNonlin 8.2 non-compartmental model was used to estimate pharmacokinetic parameters (PK parameters, including but not limited to peak concentration (Cmax), time to peak (Tmax), terminal elimination rate (Ke), terminal elimination half-life (T1/2), area under drug-time curve (AUC), clearance rate (CL), apparent volume of distribution (Vd), mean residence time (MRT), bioavailability (F), etc.).

For data set [2], the system named is FN. Nature of the data set: Semi-activated LX2 cells, Western blot: FN protein. In kind it is cell-based. Conditions: 50-400 μM, 48 hours, FIG. 3, vs 50 μM aspartic acid.
The mark [3] stands for this setting: male, SD, rat, plasma, PO 20 mg/kg.

Where a name gives a salt, the structure may show the parent alone. Read-outs that look alike come from different tables or passages of the source.

As to `COC(=O)C[C@H](N)C(=O)O` [Compound 6], in data set [1] (PO 20 mg/kg), the “AUC compared with rats administrated with aspartic acid” value is “significantly higher”, the “Cmax compared with rats administrated with aspartic acid” value was “significantly higher” and the “Tmax compared with rats administered with aspartic acid” value was “significantly smaller”. The Cmax in data set [1] (male, SD, rat, plasma, Compound 6 IV 10 mg/kg, read-out: Cmax of Compound 6) amounted to 6100 ng/mL. In addition, the Cmax in data set [1] (male, SD, rat, plasma, Compound 6 PO 40 mg/kg, read-out: Cmax of Compound 6) stood at 22500 ng/mL. In data set [1] (setting [3]), the AUC(0-t) was 71300 ng·h/mL and the Tmax stood at 30 min. For the same molecule, in data set [1] (male, SD, rat, plasma, PO 20 mg/kg, read-out: Cmax), the Cmax was determined as 14800 ng/mL.
On to `COC(=O)C[C@H](N)C(=O)OCOC(=O)[C@@H](N)CC(=O)OC` [Compound 54, 4-dimethyl O′1,01-methylene (2S,2'S)-bis (2-aminosuccinate) hydrochloride], for which the “inhibitory effect on FN protein expression as compared to ASP” value in data set [2] was “stronger inhibitory effects”.

(Values after patent publication US20250025438A1, “Derivative of aspartic acid and use thereof in treatment of metabolic diseases such as hepatic fibrosis and non-alcoholic hepatitis” (SHENZHEN JINGTAI TECHNOLOGY CO., LTD., priority 2021, published 2025).)
